Reference: ChEMBL document CHEMBL5365447, “Pronucleotides of 2',3'-Dideoxy-2',3'-Didehydrothymidine as Potent Anti-HIV Compounds” (J Med Chem, 2023)

Columns and labels:
[1] = Cytotoxicity against human CEM cells assessed as reduction in cell viability incubated for 4 to 5 days by light microscopic analysis; type: toxicity, cell-based; conditions: CEM cells (CCRF-CEM), time 4-5 day
[2] = system: Human immunodeficiency virus 2; experiment: Antiviral activity against HIV-2 ROD infected in thymidine kinase-deficient human CEM cells assessed as inhibition of virus-induced cytopathic effect incubated for 4 to 5 days by light microscopic analysis; type: functional, organism-based; conditions: Human immunodeficiency virus 2, ROD, CCRF-CEM
[3] = Selectivity index, ratio of CC50 for human CEM cells to EC50 for HIV-2 ROD infected in thymidine kinase-deficient human CEM cells; type: toxicity; conditions: read-out: Ratio CC50/EC50
[4] = Prodrug conversion in pH 7.3 phosphate buffer assessed as ((2S,5R)-5-(5-methyl-2,4-dioxo-3,4-dihydropyrimidin-1(2H)-yl)-2,5-dihydrofuran-2-yl)methyl tri-hydrogen diphosphate formation by measuring half life in presence of pig liver esterase by HPLC analysis; type: ADME
[5] = Chemical stability of the compound in phosphate buffer saline assessed as half life at pH 7.3 by HPLC analysis; type: physicochemical; conditions: phosphate buffered saline
[6] = Prodrug conversion in human CEM/0 cell extract assessed as metabolite formation by measuring half life by HPLC analysis; type: ADME; conditions: ccrf-cem
[7] = system: Human immunodeficiency virus 1; experiment: Antiviral activity against HIV-1 HE infected in wild-type human CEM/0 cells assessed as inhibition of virus-induced cytopathic effect incubated for 4 to 5 days by light microscopic analysis; type: functional, organism-based; conditions: Human immunodeficiency virus 1, HE, CCRF-CEM
[8] = Retention time of the compound by HPLC analysis; type: physicochemical
[9] = Prodrug conversion in human CEM/0 cell extract assessed as ((2S,5R)-5-(5-methyl-2,4-dioxo-3,4-dihydropyrimidin-1(2H)-yl)-2,5-dihydrofuran-2-yl)methyl tri-hydrogen diphosphate formation by HPLC analysis; type: ADME; conditions: ccrf-cem
[10] = system: Human immunodeficiency virus 2; experiment: Antiviral activity against HIV-2 ROD infected in wild-type human CEM/0 cells assessed as inhibition of virus-induced cytopathic effect incubated for 4 to 5 days by light microscopic analysis; type: functional, organism-based; conditions: Human immunodeficiency virus 2, ROD, CCRF-CEM

Row | Structure (SMILES) | CC50 [1] | EC50 [2] | selectivity ratio [3] | t1/2 [4] | half-life [5] | t1/2 [6] | EC50 [7] | Retention_time [8] | Drug metabolism [9] | EC50 [10]
1 | Cc1cn([C@H]2C=C[C@@H](CO)O2)c(=O)[nH]c1=O [STAVUDINE] | > 50 µM | > 50 µM | > 1 | – | – | – | – | – | – | –
2 | CCCCCCCCCCCCP(=O)(O)OP(=O)(O)OC[C@@H]1C=C[C@H](n2cc(C)c(=O)[nH]c2=O)O1.N.N | > 100 µM | 12.6 µM | > 8 | > 150 h | > 83.3 days | > 30 h | 0.87 µM | 12.3 min | Metabolite_Notdetected | 0.2 µM
